Assay results: patent publication US20240150303A1, “DIAMINOTRIAZINE COMPOUNDS” (BASF SE, priority 2021, published 2024)

Columns and labels:
Test in all cases: greenhouse pre-emergence herbicidal test
Format in all cases: in vivo
Amaranthus retroflexus = tested on: Amaranthus retroflexus
From the text: (§1) The seeds of the test plants were sown separately for each species. For the pre-emergence treatment, the active ingredients, which had been suspended or emulsified in water, were applied directly after sowing by means of finely distributing nozzles. The containers were irrigated gently to promote germination and growth and subsequently covered with transparent plastic hoods until the plants had rooted. This cover caused uniform germination of the test plants, unless this had been impaired by the active ingredients. […] The test period extended over 2 to 4 weeks. During this time, the plants were tended, and their response to the individual treatments was evaluated. Evaluation was carried out using a scale from 0 to 100. 100 means no emergence of the plants, or complete destruction of at least the aerial moieties, and 0 means no damage, or normal course of growth. A moderate herbicidal activity is given at values of at least 60, a good herbicidal activity is given at values of at least 70, and a very good herbicidal activity is given at values of at least 85. The plants used in the greenhouse experiments were of the following species: [table]

Echinocloa crus-galli = tested on: Echinocloa crus-galli
From the text: as §1

Setaria faberi = tested on: Setaria faberi
From the text: as §1

Abutilon theophrasti = tested on: Abutilon theophrasti
From the text: (§2) The culture containers used were plastic flowerpots containing loamy sand with approximately 3.0% of humus as the substrate. The seeds of the test plants were sown separately for each species.
(§3) For the pre-emergence treatment, the active ingredients, which had been suspended or emulsified in water, were applied directly after sowing by means of finely distributing nozzles.
(§4) The containers were irrigated gently to promote germination and growth and subsequently covered with transparent plastic hoods until the plants had rooted. This cover caused uniform germination of the test plants, unless this had been impaired by the active ingredients.
(§5) Depending on the species, the plants were kept at 10-25° C. or 20-35° C., respectively.
(§6) The test period extended over 2 to 4 weeks. During this time, the plants were tended, and their response to the individual treatments was evaluated.
(§7) Evaluation was carried out using a scale from 0 to 100. 100 means no emergence of the plants, or complete destruction of at least the aerial moieties, and 0 means no damage, or normal course of growth. A moderate herbicidal activity is given at values of at least 60, a good herbicidal activity is given at values of at least 70, and a very good herbicidal activity is given at values of at least 85.
(§8) The plants used in the greenhouse experiments were of the following species: […]

Apera spica-venti = tested on: Apera spica-venti
From the text: as §2, §3, §4, §5, §6, §7, §8

Lolium multiflorum = details: 62 g/ha
From the text: as §2, §3, §4, §5, §6, §7, §8

Alopercurus myosuroides = tested on: Alopercurus myosuroides
From the text: as §2, §3, §4, §5, §6, §7, §8

| SMILES | herbicidal activity (Setaria faberi; 31 g/ha) [%] | herbicidal activity (Amaranthus retroflexus; 62.5 g/ha) [%] | herbicidal activity (Echinocloa crus-galli; 62.5 g/ha) [%] | herbicidal activity (Abutilon theophrasti; 62.5 g/ha) [%] | herbicidal activity (Setaria faberi; 62 g/ha) [%] | herbicidal activity (Setaria faberi; 62.5 g/ha) [%] | herbicidal activity (Abutilon theophrasti; 62 g/ha) [%] | herbicidal activity (Lolium multiflorum) [%] | herbicidal activity (Amaranthus retroflexus; 62 g/ha) [%] | herbicidal activity (Echinocloa crus-galli; 62 g/ha) [%] | other results |
| --- | --- | --- | --- | --- | --- | --- | --- | --- | --- | --- | --- |
| C#CCOc1c(Br)cc(F)c(Cl)c1Nc1nc(N)nc(C(C)(C)F)n1 [Example 31] | 100 | – | – | – | – | – | – | – | – | – | herbicidal activity (Amaranthus retroflexus; 250 g/ha): 100%; herbicidal activity (Echinocloa crus-galli; 250 g/ha): 100%; herbicidal activity (Abutilon theophrasti; 31 g/ha): 100%; herbicidal activity (Abutilon theophrasti; 250 g/ha): 100%; herbicidal activity (Apera spica-venti; 31 g/ha): 100% |
| COc1c(Cl)cc(Cl)c(C)c1Nc1nc(N)nc(C(C)F)n1 (stereo not drawn) [Example 35] | – | 100 | 100 | 100 | – | – | – | – | – | – | herbicidal activity (Amaranthus retroflexus; 125 g/ha): 100%; herbicidal activity (Abutilon theophrasti; 125 g/ha): 95%; herbicidal activity (Apera spica-venti; 125 g/ha): 100% |
| COc1c(Cl)cc(Cl)c(C)c1Nc1nc(N)nc(C2(F)CCCC2)n1 [Example 36] | – | 100 | 100 | 100 | – | – | – | – | – | – | herbicidal activity (Echinocloa crus-galli; 125 g/ha): 85%; herbicidal activity (Setaria faberi; 125 g/ha): 90%; herbicidal activity (Apera spica-venti; 125 g/ha): 100% |
| COc1c(Cl)cc(Cl)c(C)c1Nc1nc(N)nc(C(C)(C)OC)n1 [Example 37] | – | 100 | 100 | 98 | – | – | – | – | – | – | herbicidal activity (Setaria faberi; 125 g/ha): 85%; herbicidal activity (Abutilon theophrasti; 125 g/ha): 85%; herbicidal activity (Apera spica-venti; 125 g/ha): 100% |
| COc1c(Br)cc(C)c(C)c1Nc1nc(N)nc(C(C)(C)F)n1 [Example 45] | – | 100 | 100 | – | 100 | 100 | 100 | 100 | – | – | – |
| COc1c(Br)cc(C)c(C)c1Nc1nc(N)nc(C(C)F)n1 (stereo not drawn) [Example 46] | – | 100 | 100 | – | 100 | 100 | – | 80 | 100 | – | – |
| COc1c(Br)cc(C)c(C)c1Nc1nc(N)nc(C2(F)CCCC2)n1 [Example 47] | – | 100 | 100 | – | 90 | 100 | – | 80 | – | – | – |
| COc1c(Br)cc(C)c(C)c1Nc1nc(N)nc(C(C)(C)OC)n1 [Example 48] | 100 | – | – | – | 80 | – | – | 98 | – | 90 | herbicidal activity (Amaranthus retroflexus; 31 g/ha): 100%; herbicidal activity (Echinocloa crus-galli; 31 g/ha): 70% |
| CC(C)(F)c1nc(N)nc(Nc2c(Cl)ccc(F)c2OCC#CC2CC2)n1 [Example 52] | – | – | 100 | – | – | 100 | 100 | – | 100 | 100 | herbicidal activity (Apera spica-venti; 62.5 g/ha): 100% |
| COc1c(Cl)cc(Br)c(C)c1Nc1nc(N)nc(C(C)(C)F)n1 [Example 60] | 98 | – | – | – | 100 | – | 100 | – | 100 | – | herbicidal activity (Amaranthus retroflexus; 31 g/ha): 100%; herbicidal activity (Apera spica-venti; 31 g/ha): 95% |
| COc1c(Cl)cc(C)c(Cl)c1Nc1nc(N)nc(C(C)(C)F)n1 [Example 63] | 100 | – | – | – | – | – | 100 | – | 100 | 100 | herbicidal activity (Amaranthus retroflexus; 31 g/ha): 80%; herbicidal activity (Alopercurus myosuroides; 31 g/ha): 80% |
| C#CCOc1c(Cl)cc(C)c(Cl)c1Nc1nc(N)nc(C(C)(C)F)n1 [Example 64] | – | – | – | – | 100 | – | 100 | 98 | – | 100 | – |
| COc1c(Cl)cc(F)c(C)c1Nc1nc(N)nc(C2(F)CC2)n1 [Example 92] | – | – | 100 | 100 | 100 | – | – | – | 100 | 100 | herbicidal activity (Alopercurus myosuroides; 62.5 g/ha): 100% |
